Measurements from US9464082B2, “Aryl and arylalkyl substituted pyrazolyl and pyrimidinyl tricyclic enones as antioxidant inflammation modulators” (AbbVie Inc., priority 2014, dated 2016).

Tested on: IFNγ-Induced NO Production
Assay: Nitric Oxide Suppression Assay (Suppression of IFNγ-Induced NO Production)
Assay type: cell-based
Details: RAW264.7; RAW 264.7 mouse macrophage cells; 2 hour pre-treatment with compound (3 μM to 0.3 nM, 10 point curve); 20 ng/mL interferon gamma, ~18 hour; Griess detection; n=2-3 in duplicates
Method in brief: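 Mouse RAW 264.7 macrophages pre-treated 2 h at 37 °C with compound (3 μM to 0.3 nM, 10 points; DMSO ≤1%), then stimulated with 20 ng/mL interferon gamma for ~18 h. Supernatant nitrite measured by Griess reaction, absorbance 520–550 nm. IC50 from curve fit of signal normalised to IFNγ alone, mean n=2-3 in duplicate.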

Cc1nc(-c2cncnc2)c2c(n1)[C@@]1(c3ccc(F)cc3)C=C(C#N)C(=O)[C@@H](C)[C@@H]1CC2 [Example 68, (6aS,7S,10aR)-10a-(4-fluorophenyl)-2,7-dimethyl-8-oxo-4-(pyrimidin-5-yl)-5,6,6a,7,8,10a-hexahydrobenzo[h]quinazoline-9-carbonitrile]
IC50: 33.6 nM

Cc1nc(-c2cncnc2)c2c(n1)[C@@]1(c3cccc(F)c3)C=C(C#N)C(=O)[C@@H](C)[C@@H]1CC2 [Example 69, (6aS,7S,10aR)-10a-(3-fluorophenyl)-2,7-dimethyl-8-oxo-4-(pyrimidin-5-yl)-5,6,6a,7,8,10a-hexahydrobenzo[h]quinazoline-9-carbonitrile]
IC50: 35.8 nM

COc1ccc([C@]23C=C(C#N)C(=O)[C@@H](C)[C@@H]2CCc2cncnc23)cc1 [Example 70, (6aS,7S,10aR)-10a-(4-methoxyphenyl)-7-methyl-8-oxo-5,6,6a,7,8,10a-hexahydrobenzo[h]quinazoline-9-carbonitrile]
IC50: 5.27 nM

C[C@@H]1C(=O)C(C#N)=C[C@]2(c3cccc(C(=O)O)c3)c3n[nH]cc3CC[C@@H]12 [Example 71, 3-[(5aS,6S,9aR)-8-cyano-6-methyl-7-oxo-2,4,5,5a,6,7-hexahydro-9aH-benzo[g]indazol-9a-yl]benzoic acid]
IC50: 1470 nM

C[C@@H]1C(=O)C(C#N)=C[C@]2(c3ccc(O)cc3)c3n[nH]cc3CCC12 (stereo partly drawn) [Example 72, (6S,9aR)-9a-(4-hydroxyphenyl)-6-methyl-7-oxo-4,5,5a,6,7,9a-hexahydro-2H-benzo[g]indazole-8-carbonitrile]
IC50: 37.9 nM

C[C@@H]1C(=O)C(C#N)=C[C@]2(c3ccc(C(=O)N4CCCC4)cc3)c3ncncc3CC[C@@H]12 [Example 73, (6aS,7S,10aR)-7-methyl-8-oxo-10a-[4-(pyrrolidin-1-ylcarbonyl)phenyl]-5,6,6a,7,8,10a-hexahydrobenzo[h]quinazoline-9-carbonitrile]
IC50: 152 nM

C[C@@H]1C(=O)C(C#N)=C[C@]2(c3ccccc3)c3nc(-c4c(F)cccc4F)ncc3CC[C@@H]12 [Example 74, (6aS,7S,10aR)-2-(2,6-difluorophenyl)-7-methyl-8-oxo-10a-phenyl-5,6,6a,7,8,10a-hexahydrobenzo[h]quinazoline-9-carbonitrile]
IC50: 9.26 nM

COC(=O)c1ccc(-c2ncc3c(n2)[C@@]2(c4ccccc4)C=C(C#N)C(=O)[C@@H](C)[C@@H]2CC3)cc1 [Example 75, methyl 4-[(6aS,7S,10aR)-9-cyano-7-methyl-8-oxo-10a-phenyl-5,6,6a,7,8,10a-hexahydrobenzo[h]quinazolin-2-yl]benzoate]
IC50: 12.7 nM

CC(=O)n1cc(-c2nc(C)nc3c2CC[C@H]2[C@H](C)C(=O)C(C#N)=C[C@]32c2ccccc2)cn1 [Example 76, (6aS,7S,10aR)-4-(1-acetyl-1H-pyrazol-4-yl)-2,7-dimethyl-8-oxo-10a-phenyl-5,6,6a,7,8,10a-hexahydrobenzo[h]quinazoline-9-carbonitrile]
IC50: 1.91 nM

C[C@@H]1C(=O)C(C#N)=C[C@]2(c3ccccc3)c3nc(-c4ccc(C(=O)O)cc4)ncc3CC[C@@H]12 [Example 77, 4-[(6aS,7S,10aR)-9-cyano-7-methyl-8-oxo-10a-phenyl-5,6,6a,7,8,10a-hexahydrobenzo[h]quinazolin-2-yl]benzoic acid]
IC50: 15.4 nM

C[C@@H]1C(=O)C(C#N)=C[C@]2(c3cccc(F)c3)c3n[nH]c(-c4cccc(CCCO)c4)c3CCC12 (stereo partly drawn) [Example 78, (6S,9aR)-9a-(3-fluorophenyl)-3-[3-(3-hydroxypropyl)phenyl]-6-methyl-7-oxo-4,5,5a,6,7,9a-hexahydro-2H-benzo[g]indazole-8-carbonitrile]
IC50: 21.8 nM

COc1ccc([C@]23C=C(C#N)C(=O)[C@@H](C)[C@@H]2CCc2c(-c4ccc(-c5[nH]ncc5Br)cc4)nc(C)nc23)cc1 [Example 79, (6aS,7S,10aR)-4-[4-(4-bromo-1H-pyrazol-5-yl)phenyl]-10a-(4-methoxyphenyl)-2,7-dimethyl-8-oxo-5,6,6a,7,8,10a-hexahydrobenzo[h]quinazoline-9-carbonitrile]
IC50: 45.7 nM

COc1ccc([C@]23C=C(C#N)C(=O)[C@@H](C)[C@@H]2CCc2c(-c4ccc(-c5ccn[nH]5)cc4)nc(C)nc23)cc1 [Example 80, (6aS,7S,10aR)-10a-(4-methoxyphenyl)-2,7-dimethyl-8-oxo-4-[4-(1H-pyrazol-5-yl)phenyl]-5,6,6a,7,8,10a-hexahydrobenzo[h]quinazoline-9-carbonitrile]
IC50: 7.43 nM

Cc1nc(-c2ccc(-c3[nH]ncc3Br)cc2)c2c(n1)[C@@]1(c3ccc(F)cc3)C=C(C#N)C(=O)[C@@H](C)[C@@H]1CC2 [Example 81, (6aS,7S,10aR)-4-[4-(4-bromo-1H-pyrazol-5-yl)phenyl]-10a-(4-fluorophenyl)-2,7-dimethyl-8-oxo-5,6,6a,7,8,10a-hexahydrobenzo[h]quinazoline-9-carbonitrile]
IC50: 35 nM

C[C@@H]1C(=O)C(C#N)=C[C@]2(c3ccc(F)cc3)c3nn(C(=O)CN)cc3CC[C@@H]12 [Example 82, (5aS,6S,9aR)-9a-(4-fluorophenyl)-2-glycyl-6-methyl-7-oxo-4,5,5a,6,7,9a-hexahydro-2H-benzo[g]indazole-8-carbonitrile]
IC50: 31.3 nM

Cc1nc(-c2ccc(-c3ccn[nH]3)cc2)c2c(n1)[C@@]1(c3ccc(F)cc3)C=C(C#N)C(=O)[C@@H](C)[C@@H]1CC2 [Example 83, (6aS,7S,10aR)-10a-(4-fluorophenyl)-2,7-dimethyl-8-oxo-4-[4-(1H-pyrazol-5-yl)phenyl]-5,6,6a,7,8,10a-hexahydrobenzo[h]quinazoline-9-carbonitrile]
IC50: 16.4 nM

C[C@@H]1C(=O)C(C#N)=C[C@]2(c3ccccc3)c3nc(-c4cnccn4)ncc3CC[C@@H]12 [Example 84, (6aS,7S,10aR)-7-methyl-8-oxo-10a-phenyl-2-(pyrazin-2-yl)-5,6,6a,7,8,10a-hexahydrobenzo[h]quinazoline-9-carbonitrile]
IC50: 6.72 nM

C[C@@H]1C(=O)C(C#N)=C[C@]2(c3ccccc3)c3nc(C(C)(C)C)ncc3CC[C@@H]12 [Example 85, (6aS,7S,10aR)-2-tert-butyl-7-methyl-8-oxo-10a-phenyl-5,6,6a,7,8,10a-hexahydrobenzo[h]quinazoline-9-carbonitrile]
IC50: 33.8 nM

C[C@@H]1C(=O)C(C#N)=C[C@]2(c3ccccc3)c3n[nH]c(-c4cccnc4)c3CC[C@@H]12 [Example 86, (5aS,6S,9aR)-6-methyl-7-oxo-9a-phenyl-3-(pyridin-3-yl)-4,5,5a,6,7,9a-hexahydro-2H-benzo[g]indazole-8-carbonitrile]
IC50: 3.95 nM

C[C@@H]1C(=O)C(C#N)=C[C@]2(c3ccccc3)c3n[nH]c(-c4cncnc4)c3CC[C@@H]12 [Example 87, (5aS,6S,9aR)-6-methyl-7-oxo-9a-phenyl-3-(pyrimidin-5-yl)-4,5,5a,6,7,9a-hexahydro-2H-benzo[g]indazole-8-carbonitrile]
IC50: 4.18 nM

C[C@@H]1C(=O)C(C#N)=C[C@]2(c3ccccc3)c3n[nH]c(-c4cccc(O)c4)c3CC[C@@H]12 [Example 88, (5aS,6S,9aR)-3-(3-hydroxyphenyl)-6-methyl-7-oxo-9a-phenyl-4,5,5a,6,7,9a-hexahydro-2H-benzo[g]indazole-8-carbonitrile]
IC50: 20.1 nM

C[C@@H]1C(=O)C(C#N)=C[C@]2(c3ccccc3)c3n[nH]c(-c4cnn(C)c4)c3CC[C@@H]12 [Example 89, (5aS,6S,9aR)-6-methyl-3-(1-methyl-1H-pyrazol-4-yl)-7-oxo-9a-phenyl-4,5,5a,6,7,9a-hexahydro-2H-benzo[g]indazole-8-carbonitrile]
IC50: 8.18 nM

COc1ccc([C@]23C=C(C#N)C(=O)[C@@H](C)[C@@H]2CCc2c(-c4ccc5[nH]cnc5c4)nc(C)nc23)cc1 [Example 90, (6aS,7S,10aR)-4-(1H-benzimidazol-5-yl)-10a-(4-methoxyphenyl)-2,7-dimethyl-8-oxo-5,6,6a,7,8,10a-hexahydrobenzo[h]quinazoline-9-carbonitrile]
IC50: 7.32 nM

Cc1nc(-c2ccc3[nH]cnc3c2)c2c(n1)[C@@]1(c3ccc(F)cc3)C=C(C#N)C(=O)[C@@H](C)[C@@H]1CC2 [Example 91, (6aS,7S,10aR)-4-(1H-benzimidazol-5-yl)-10a-(4-fluorophenyl)-2,7-dimethyl-8-oxo-5,6,6a,7,8,10a-hexahydrobenzo[h]quinazoline-9-carbonitrile]
IC50: 13.6 nM

Cc1nc(-c2cccc3c(Br)n[nH]c23)c2c(n1)[C@@]1(c3ccc(F)cc3)C=C(C#N)C(=O)[C@@H](C)[C@@H]1CC2 [Example 92, (6aS,7S,10aR)-4-(3-bromo-1H-indazol-7-yl)-10a-(4-fluorophenyl)-2,7-dimethyl-8-oxo-5,6,6a,7,8,10a-hexahydrobenzo[h]quinazoline-9-carbonitrile]
IC50: 31.7 nM

Cc1nc(-c2cccc3cn[nH]c23)c2c(n1)[C@@]1(c3ccc(F)cc3)C=C(C#N)C(=O)[C@@H](C)[C@@H]1CC2 [Example 93, (6aS,7S,10aR)-10a-(4-fluorophenyl)-4-(1H-indazol-7-yl)-2,7-dimethyl-8-oxo-5,6,6a,7,8,10a-hexahydrobenzo[h]quinazoline-9-carbonitrile]
IC50: 7.27 nM

Cc1nc(-c2c[nH]c(=O)[nH]c2=O)c2c(n1)[C@@]1(c3ccc(F)cc3)C=C(C#N)C(=O)[C@@H](C)[C@@H]1CC2 [Example 94, (6aS,7S,10aR)-4-(2,4-dioxo-1,2,3,4-tetrahydropyrimidin-5-yl)-10a-(4-fluorophenyl)-2,7-dimethyl-8-oxo-5,6,6a,7,8,10a-hexahydrobenzo[h]quinazoline-9-carbonitrile]
IC50: 639 nM

C[C@@H]1C(=O)C(C#N)=C[C@]2(c3cccc(C(=O)Nc4ccccc4)c3)c3ncncc3CC[C@@H]12 [Example 95, 3-[(6aS,7S,10aR)-9-cyano-7-methyl-8-oxo-6,6a,7,8-tetrahydrobenzo[h]quinazolin-10a(5H)-yl]-N-phenylbenzamide]
IC50: 15.5 nM
